From patent US11839613B2, “Pyrimidine derivatives as PGE2 receptor modulators” (IDORSIA PHARMACEUTICALS LTD, priority 2017, dated 2023)

How the values were obtained:
EP4 = EP4 (Homo sapiens (Human), UniProt P35408); assay: hEP4 cAMP assay (BT549 breast cancer cells, HTRF cAMP); format: cell-based; settings: antagonistic activity, PGE2 6 nM
Source text: (§1) Human tumor cell lines expressing endogenously either EP4 or EP2 are used and cAMP accumulation in cells upon PGE2 stimulation is monitored. SF295 glioblastoma cells express high endogenous EP2 and no EP4, whereas BT549 breast cancer cells, express high endogenous EP4 levels and very low EP2 levels.
(§2) As a detection method for cAMP the HTRF (homogeneous time resolved fluorescence) Cisbio kit (HTRF cAMP dynamic 2 kit 20'000 tests Cisbio Cat. #62AM4PEC) was used, which is based on a competitive immunoassay using a Cryptate-labeled anti-cAMP antibody and d2-labeled cAMP. Native cAMP produced by cells or unlabeled cAMP (for the standard curve) compete with exogenously added d2-labeled cAMP (acceptor) for binding to monoclonal anti-cAMP-Eu3+Cryptate (donor). A FRET signal (Fluorescence Resonance Energy Transfer) is obtained only if the labeled anti-cAMP antibody binds the d2 labelled cAMP, thus the specific signal (i.e. energy transfer) is inversely proportional to the concentration of cAMP in the standard or sample.
(§3) Cells are counted washed and resuspended in assay buffer (AB; HBSS, 20 mM HEPES, 0.2% BSA; 2 mM IBMX).
Plate is pre-incubated 45 minutes at RT. Subsequently, 2.5 microliters of PGE2 (final conc. 6 nM) are transferred into the assay plate. Plate is incubated 30 minutes at RT.

EP2 = EP2 (Homo sapiens (Human), UniProt P43116); assay: hEP2 cAMP assay (SF295 glioblastoma cells, HTRF cAMP); format: cell-based; settings: antagonistic activity
EP2, sequence (P43116 whole entry): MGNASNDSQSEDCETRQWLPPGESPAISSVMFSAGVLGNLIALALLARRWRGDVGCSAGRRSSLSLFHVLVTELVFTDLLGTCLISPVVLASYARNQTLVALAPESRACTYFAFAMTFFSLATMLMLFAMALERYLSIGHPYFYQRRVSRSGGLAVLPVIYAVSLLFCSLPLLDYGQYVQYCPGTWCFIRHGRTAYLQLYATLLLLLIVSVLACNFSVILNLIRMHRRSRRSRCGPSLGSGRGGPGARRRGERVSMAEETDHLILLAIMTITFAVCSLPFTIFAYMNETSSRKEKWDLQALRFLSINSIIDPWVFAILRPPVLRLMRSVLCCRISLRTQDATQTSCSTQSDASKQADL
Source text: as §1, §2, §3
Plate is pre-incubated 45 minutes at RT. […] Plate is incubated 30 minutes at RT.

PTGER4 (EP4) = PTGER4 (EP4) (Homo sapiens (Human), UniProt P35408); assay: cell-based
PTGER4 (EP4), sequence (P35408 whole entry): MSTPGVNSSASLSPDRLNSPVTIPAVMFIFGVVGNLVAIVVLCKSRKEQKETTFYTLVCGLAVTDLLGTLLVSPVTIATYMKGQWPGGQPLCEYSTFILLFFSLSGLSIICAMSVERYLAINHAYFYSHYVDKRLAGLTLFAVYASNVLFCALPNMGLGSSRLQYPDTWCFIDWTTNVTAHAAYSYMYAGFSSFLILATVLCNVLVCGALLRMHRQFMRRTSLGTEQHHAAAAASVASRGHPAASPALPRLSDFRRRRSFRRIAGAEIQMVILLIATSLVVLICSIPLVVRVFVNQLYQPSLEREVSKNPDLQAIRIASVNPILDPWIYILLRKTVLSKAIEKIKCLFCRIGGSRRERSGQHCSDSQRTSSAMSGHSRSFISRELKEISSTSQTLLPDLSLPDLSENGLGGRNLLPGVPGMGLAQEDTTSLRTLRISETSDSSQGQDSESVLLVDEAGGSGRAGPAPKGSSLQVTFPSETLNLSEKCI

PTGER2 (EP2) = PTGER2 (EP2) (Homo sapiens (Human), UniProt P43116); assay: hEP2 b-arrestin assay (PathHunter HEK 293 PTGER2 b-arrestin cells); format: cell-based; settings: antagonistic activity, beta-arrestin assay; read-out: hEP2 b-arr IC50
PTGER2 (EP2), sequence (P43116 whole entry): as the sequence (P43116 whole entry) above
Protocol: Plate is pre-incubated 15 minutes at 37° C. Then five microliters of PGE2 (final conc. 5 μM) are transferred into the assay plate. Plate is incubated 120 minutes at 37° C.
(each concentration is measured in duplicate)

EP4, sequence (P35408 whole entry): as the sequence (P35408 whole entry) above

Row | SMILES | IC50 (EP4) [nM] | IC50 (EP2) [nM] | IC50 (PTGER4 (EP4)) [nM] | IC50 (PTGER2 (EP2)) [nM] | IC50 (EP4; BT549 cells) [nM]
1 | O=C(O)c1ccc(-c2cc(NCCc3cc4c(cc3OC(F)F)OCCO4)ncn2)cc1OC1CCC1 [Example 494, 2-Cyclobutoxy-4-{6-[2-(7-difluoromethoxy-2,3-dihydro-benzo[1,4]dioxin-6-yl)-ethylamino]-pyrimidin-4-yl}-benzoic acid] |  |  | 209 | 340 | 
2 | O=c1nc(-c2ccc(-c3cc(NCCc4cc(F)c5sccc5c4)ncn3)cc2)o[nH]1 [Example 543, 5-(4-(6-((2-(7-fluorobenzo[b]thiophen-5-yl)ethyl)amino)pyrimidin-4-yl)phenyl)-[1,2,4]oxadiazol-3(2H)-one] |  |  | 124 | 612 | 
3 | CSc1cc(-c2cc(NCCc3ccc4ccsc4c3C)ncn2)ccc1C(=O)O [Example 473, 4-{6-[2-(7-Methyl-benzo[b]thiophen-6-yl)-ethylamino]-pyrimidin-4-yl}-2-methylsulfanyl-benzoic acid] |  |  | 275 | 137 | 
4 | CSc1cc(-c2cc(NCCc3ccc4scc(Cl)c4c3)ncn2)ccc1C(=O)O [Example 429, 4-{6-[2-(3-Chloro-benzo[b]thiophen-5-yl)-ethylamino]-pyrimidin-4-yl}-2-methylsulfanyl-benzoic acid] |  |  | 60 | 52 | 
5 | CC(C)Cc1cc(-c2cc(NCCc3cc(F)c4sccc4c3)ncn2)ccc1C(=O)O [Example 414, 4-{6-[2-(7-Fluoro-benzo[b]thiophen-5-yl)-ethylamino]-pyrimidin-4-yl}-2-isobutyl-benzoic acid] |  |  | 48 | 219 | 
6 | COc1c(CCNc2cc(-c3ccc(C(=O)O)c(SC)c3)ncn2)cc2ccsc2c1F [Example 405, 4-{6-[2-(7-Fluoro-6-methoxy-benzo[b]thiophen-5-yl)-ethylamino]-pyrimidin-4-yl}-2-methylsulfanyl-benzoic acid] |  |  | 79 | 9 | 
7 | CCOc1cc(-c2cc(NCCc3cc(F)c4sccc4c3)ncn2)ccc1C(=O)NCCO [Example 464, 2-Ethoxy-4-{6-[2-(7-fluoro-benzo[b]thiophen-5-yl)-ethylamino]-pyrimidin-4-yl}-N-(2-hydroxy-ethyl)-benzamide] |  |  | 87 | 300 | 
8 | CC(C)Oc1cc(-c2cc(NCCc3ccc4sccc4c3F)ncn2)ccc1C(=O)O [Example 492, 4-{6-[2-(4-Fluoro-benzo[b]thiophen-5-yl)-ethylamino]-pyrimidin-4-yl}-2-isopropoxy-benzoic acid] |  |  | 142 | 204 | 
9 | CSc1cc(-c2cc(NCCc3cc(C)c4sccc4c3)ncn2)ccc1C(=O)O [Example 477, 4-{6-[2-(7-Methyl-benzo[b]thiophen-5-yl)-ethylamino]-pyrimidin-4-yl}-2-methylsulfanyl-benzoic acid] |  |  | 210 | 316 | 
10 | CCCc1cc(-c2cc(NCCc3ccc4sccc4c3F)ncn2)ccc1C(=O)O [Example 378, 4-{6-[2-(4-Fluoro-benzo[b]thiophen-5-yl)-ethylamino]-pyrimidin-4-yl}-2-propyl-benzoic acid] |  |  | 36 | 20 | 
11 | CC(C)Oc1cc(-c2cc(NCCc3cc(F)c4sccc4c3)ncn2)ccc1C(=O)O [Example 491, 4-{6-[2-(7-Fluoro-benzo[b]thiophen-5-yl)-ethylamino]-pyrimidin-4-yl}-2-isopropoxy-benzoic acid] |  |  | 148 | 372 | 
12 | O=C(O)c1coc2cc(-c3cc(NCCc4ccc5sccc5c4)ncn3)ccc12 [Example 467, 6-[6-(2-Benzo[b]thiophen-5-yl-ethylamino)-pyrimidin-4-yl]-benzofuran-3-carboxylic acid] |  |  | 187 | 417 | 155
13 | CCc1cc(-c2cc(NCCc3cc(F)c4sccc4c3)ncn2)cc(Cl)c1CC(=O)O [Example 541, (2-Chloro-6-ethyl-4-{6-[2-(7-fluoro-benzo[b]thiophen-5-yl)-ethylamino]-pyrimidin-4-yl}-phenyl)-acetic acid] |  |  | 88 | 604 | 
14 | CSc1cc(-c2cc(NCCc3cc(F)c4sccc4c3)ncn2)ccc1C(=O)O [Example 364, 4-{6-[2-(7-Fluoro-benzo[b]thiophen-5-yl)-ethylamino]-pyrimidin-4-yl}-2-methylsulfanyl-benzoic acid] |  |  | 52 | 151 | 

Now from value to molecule:

Row | IC50 (EP4) [nM] | IC50 (EP2) [nM] | IC50 (PTGER4 (EP4)) [nM] | IC50 (PTGER2 (EP2)) [nM] | IC50 (EP4; BT549 cells) [nM] | SMILES
15 | 356 | 552 |  |  |  | O=C(O)c1ccc(-c2cc(NCCc3ccc4c(c3)OCCO4)ncn2)cc1OC1CCC1 [Ex 244]
16 |  |  | 118 | 257 |  | CCOc1cc(-c2cc(NCCc3cc4c(cc3OC)OCCO4)ncn2)cc(F)c1CC(=O)O [Example 373, (2-Ethoxy-6-fluoro-4-{6-[2-(7-methoxy-2,3-dihydro-benzo[1,4]dioxin-6-yl)-ethylamino]-pyrimidin-4-yl}-phenyl)-acetic acid]
17 |  |  | 337 | 892 |  | CCCc1cc(-c2cc(NCCc3ccc4c(c3)OCCO4)ncn2)ccc1CC(=O)O [Example 527, (4-{6-[2-(2,3-Dihydro-benzo[1,4]dioxin-6-yl)-ethylamino]-pyrimidin-4-yl}-2-propyl-phenyl)-acetic acid]
18 |  |  | 423 | 304 |  | Cc1c(CCNc2cc(-c3ccc(CC(=O)O)c(OC(F)F)c3)ncn2)ccc2c1OCCO2 [Example 511, (2-Difluoromethoxy-4-{6-[2-(5-methyl-2,3-dihydro-benzo[1,4]dioxin-6-yl)-ethylamino]-pyrimidin-4-yl}-phenyl)-acetic acid]
19 |  |  | 195 | 75 |  | CCOc1cc(-c2cc(NCCc3ccc4sccc4c3C)ncn2)cc(F)c1CC(=O)O [Example 372, (2-Ethoxy-6-fluoro-4-{6-[2-(4-methyl-benzo[b]thiophen-5-yl)-ethylamino]-pyrimidin-4-yl}-phenyl)-acetic acid]
20 |  |  | 867 | 900 |  | CCCc1cc(-c2cc(NCCc3cc(F)c4sccc4c3)ncn2)cc(OCC)c1C(=O)O [Example 551, 2-Ethoxy-4-{6-[2-(7-fluoro-benzo[b]thiophen-5-yl)-ethylamino]-pyrimidin-4-yl}-6-propyl-benzoic acid]
21 |  |  | 130 | 2 |  | CCOc1cc2c(cc1CCNc1cc(-c3ccc(C(=O)O)c(OC4CC4)c3)ncn1)OCCO2 [Example 447, 2-Cyclopropoxy-4-{6-[2-(7-ethoxy-2,3-dihydro-benzo[1,4]dioxin-6-yl)-ethylamino]-pyrimidin-4-yl}-benzoic acid]
22 |  |  | 269 | 96 |  | CCCc1cc(-c2cc(NCCc3cc4c(cc3C)OCCO4)ncn2)ccc1CC(=O)O [Example 526, (4-{6-[2-(7-Methyl-2,3-dihydro-benzo[1,4]dioxin-6-yl)-ethylamino]-pyrimidin-4-yl}-2-propyl-phenyl)-acetic acid]
23 |  |  | 136 | 95 |  | CCCc1cc(-c2cc(NCCc3cc4ccsc4c(F)c3OC)ncn2)ccc1CC(=O)O [Example 486, (4-{6-[2-(7-Fluoro-6-methoxy-benzo[b]thiophen-5-yl)-ethylamino]-pyrimidin-4-yl}-2-propyl-phenyl)-acetic acid]
24 |  |  | 808 | 196 |  | CCCc1cc(-c2cc(NCCc3cc(F)c4scc(Cl)c4c3)ncn2)ccc1CC(=O)O [Example 501, (4-{6-[2-(3-Chloro-7-fluoro-benzo[b]thiophen-5-yl)-ethylamino]-pyrimidin-4-yl}-2-propyl-phenyl)-acetic acid]
25 |  |  | 61 | 22 |  | CCCc1cc(-c2cc(NCCc3cc4c(cc3OCC)OCCO4)ncn2)ccc1CC(=O)O [Example 402, (4-{6-[2-(7-Ethoxy-2,3-dihydro-benzo[1,4]dioxin-6-yl)-ethylamino]-pyrimidin-4-yl}-2-propyl-phenyl)-acetic acid]
26 |  |  | 52 | 179 |  | CCOc1cc(-c2cc(NCCc3ccc4scc(Cl)c4c3)ncn2)ccc1CC(=O)O [Example 431, (4-{6-[2-(3-Chloro-benzo[b]thiophen-5-yl)-ethylamino]-pyrimidin-4-yl}-2-ethoxy-phenyl)-acetic acid]
27 |  |  | 195 | 227 |  | COc1cc2c(cc1CCNc1cc(-c3ccc(CC(=O)O)c(OC(C)C)c3)ncn1)OCCO2 [Example 523, (2-Isopropoxy-4-{6-[2-(7-methoxy-2,3-dihydro-benzo[1,4]dioxin-6-yl)-ethylamino]-pyrimidin-4-yl}-phenyl)-acetic acid]
28 |  |  | 68 | 8 |  | CCCc1cc(-c2cc(NCCc3cc4ccsc4cc3OC)ncn2)ccc1C(=O)O [Example 377, 4-{6-[2-(6-Methoxy-benzo[b]thiophen-5-yl)-ethylamino]-pyrimidin-4-yl}-2-propyl-benzoic acid]
29 |  |  | 91 | 444 |  | CCCc1cc(-c2cc(NCCc3ccc4sccc4c3F)ncn2)ccc1C(C)C(=O)O (racemic) [Example 482, rac-2-(4 -{6-[2-(4-Fluoro-benzo[b]thiophen-5-yl)-ethylamino]-pyrimidin-4-yl}-2-propyl-phenyl)-propionic acid]
